Structures can show the parent of a compound that is named as a salt.
target: T1, Met kinase (Homo sapiens, UniProt P08581); assay: Met kinase inhibition (enzyme assay), flashplate method; format: biochemical; conditions: 33P-ATP, substrate pAGLT, 3 hrs at room temperature
T1 construct: 6His (N); purchased Upstate 14-526; host or cells: Sf21 insect cells (S. frugiperda), baculovirus
Excerpt: According to the manufacturer's data (Met, active, upstate, catalogue no. 14-526), Met kinase is expressed for the purposes of protein production in insect cells (Sf21; S. frugiperda) and subsequent affinity-chromatographic purification as “N-terminal 6His-tagged” recombinant human protein in a baculovirus expression vector.
The test plates used are 96-well Flashplate® microtitre plates from Perkin Elmer (Cat. No. SMP200). The components of the kinase reaction described below are pipetted into the assay plate. The Met kinase and the substrate poly Ala-Glu-Lys-Tyr, (pAGLT, 6:2:5:1), are incubated for 3 hrs at room temperature with radioactively labelled ^33P-ATP in the presence and absence of test substances in a total volume of 100 μl. The reaction is terminated using 150 μl of a 60 mM EDTA solution. After incubation for a further 30 min at room temperature, the supernatants are filtered off with suction, and the wells are washed three times with 200 μl of 0.9% NaCl solution each time. The measurement of the bound radioactivity is carried out by means of a scintillation measuring instrument (Topcount NXT, Perkin-Elmer).
The full value used is the inhibitor-free kinase reaction. This should be approximately in the range 6000-9000 cpm. The pharmacological zero value used is staurosporin in a final concentration of 0.1 mM. The inhibitory values (IC50) are determined using the RS1_MTS program.
30 μl of assay buffer 10 μl of substance to be tested in assay buffer with 10% of DMSO 10 μl of ATP (final concentration 1 μM cold, 0.35 μCi of ^33P-ATP) 50 μl of Met kinase/substrate mixture in assay buffer; • (10 ng of enzyme/well, 50 ng of pAGLT/well)
Assay Buffer: • 50 mM HEPES • 3 mM magnesium chloride • 3 μM sodium orthovanadate • 3 mM manganese(II) chloride • 1 mM dithiothreitol (DTT) • pH=7.5 (to be set using sodium hydroxide)
Stop Solution: • 60 mM Titriplex III (EDTA) • ^33P-ATP: Perkin-Elmer; • Met kinase: Upstate, Cat. No. 14-526, Stock 1 μg/10 μl; spec. activity 954 U/mg; • Poly-Ala-Glu-Lys-Tyr, 6:2:5:1: Sigma Cat. No. P1152

T1 sequence (P08581 25-1390): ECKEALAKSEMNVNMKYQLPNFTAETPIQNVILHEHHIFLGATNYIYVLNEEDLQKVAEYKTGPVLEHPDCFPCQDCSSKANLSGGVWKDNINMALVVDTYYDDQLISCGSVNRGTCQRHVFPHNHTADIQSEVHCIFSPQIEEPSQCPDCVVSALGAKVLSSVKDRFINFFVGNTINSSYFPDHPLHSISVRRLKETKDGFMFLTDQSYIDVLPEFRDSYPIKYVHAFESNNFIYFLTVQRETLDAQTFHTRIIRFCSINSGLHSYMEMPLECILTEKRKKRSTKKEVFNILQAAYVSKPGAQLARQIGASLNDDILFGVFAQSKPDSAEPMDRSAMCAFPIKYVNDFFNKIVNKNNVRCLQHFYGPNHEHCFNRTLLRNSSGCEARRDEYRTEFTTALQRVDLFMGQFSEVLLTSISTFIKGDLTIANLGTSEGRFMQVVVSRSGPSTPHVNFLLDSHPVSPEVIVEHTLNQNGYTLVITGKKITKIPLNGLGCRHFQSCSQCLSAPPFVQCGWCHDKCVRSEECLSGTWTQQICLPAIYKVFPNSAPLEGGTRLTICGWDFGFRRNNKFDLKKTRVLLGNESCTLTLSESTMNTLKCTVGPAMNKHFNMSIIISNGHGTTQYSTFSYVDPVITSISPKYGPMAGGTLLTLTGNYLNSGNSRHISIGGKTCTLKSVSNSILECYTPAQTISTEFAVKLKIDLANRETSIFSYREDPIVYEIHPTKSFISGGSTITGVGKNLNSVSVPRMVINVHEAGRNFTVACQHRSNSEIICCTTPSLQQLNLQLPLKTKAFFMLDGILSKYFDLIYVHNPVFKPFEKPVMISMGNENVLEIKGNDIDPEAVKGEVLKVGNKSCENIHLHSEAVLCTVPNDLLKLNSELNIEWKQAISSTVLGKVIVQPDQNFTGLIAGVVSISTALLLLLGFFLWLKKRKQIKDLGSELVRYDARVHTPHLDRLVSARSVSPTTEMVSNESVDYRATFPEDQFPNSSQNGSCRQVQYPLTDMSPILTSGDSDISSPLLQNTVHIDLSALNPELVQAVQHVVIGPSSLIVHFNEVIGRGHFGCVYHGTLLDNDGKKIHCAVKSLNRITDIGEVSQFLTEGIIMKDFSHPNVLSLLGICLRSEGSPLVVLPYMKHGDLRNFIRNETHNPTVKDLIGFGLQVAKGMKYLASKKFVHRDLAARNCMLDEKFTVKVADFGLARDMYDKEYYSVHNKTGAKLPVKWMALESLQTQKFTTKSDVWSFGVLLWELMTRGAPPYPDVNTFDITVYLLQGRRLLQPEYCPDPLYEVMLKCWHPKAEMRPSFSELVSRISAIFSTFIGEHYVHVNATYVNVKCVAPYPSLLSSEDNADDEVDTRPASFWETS

IC50 [nM]	SMILES
10 to 1000	Cc1cnc(-c2cccc(Cn3nc(-c4cccc(Cl)c4)ccc3=S)c2)s1 [Compound A4, 6-(3-chlorophenyl)-2-[3-(5-methylthiazol-2-yl)benzyl]-2H-pyridazine-3-thione]
10 to 1000	Cc1cnc(-c2cccc(Cn3nc(-c4cc(F)cc(F)c4)ccc3=S)c2)s1 [Compound A3, 6-(3,5-difluorophenyl)-2-[3-(5-methylthiazol-2-yl)-benzyl]-2H-pyridazine-3-thione]
10 to 1000	CN1CCN(CCCOC(=O)Nc2cccc(Cn3nc(-c4cc(F)c(F)c(F)c4)ccc3=S)c2)CC1 [Compound A2, 3-(4-methylpiperazin-1-yl)propyl{3-[6-thioxo-3-(3,4,5-trifluorophenyl)-6H-pyridazin-1-ylmethyl]phenyl}carbamate formate]

SMILES	IC50 [nM]
CN1CCN(CCCOC(=O)Nc2cccc(Cn3nc(-c4cc(F)cc(F)c4)ccc3=S)c2)CC1 [Compound A1, 3-(4-methylpiperazin-1-yl)propyl{3-[6-thioxo-3-(3,5-difluorophenyl)-6H-pyridazin-1-ylmethyl]phenyl}carbamate]	10 to 1000
